Laboratory results published in the NIST ThermoML archive (doi:10.1021/je300557g).
± gives the expanded uncertainty stated by the source.

Assays:
[1] = xn = mol fraction of the nth substance listed; settings: 101 kPa, Liquid; for mass density: Vibrating tube method
[2] = 101.33 kPa, Liquid; for viscosity: Capillary tube (Ostwald / Ubbelohde) method; for mass density: Vibrating tube method

For CCCC[n+]1ccccc1.F[B-](F)(F)F [1-butylpyridinium tetrafluoroborate] + CCO, the mass density ([1]; 303.15 K, x1 = 0.0482) was 843.38 ± 0.32 kg/m3, the mass density ([1]; 303.15 K, x1 = 0.0945) was 892.42 ± 0.29 kg/m3 and the mass density ([1]; 303.15 K, x1 = 0.1932) was 972.49 ± 0.27 kg/m3. The mass density ([1]; 303.15 K, x1 = 0.2702) was 1019.05 ± 0.25 kg/m3, the mass density ([1]; 303.15 K, x1 = 0.3959) was 1076.24 ± 0.27 kg/m3 and the mass density ([1]; 303.15 K, x1 = 0.4954) was 1110.49 ± 0.28 kg/m3. For the same molecule, the mass density ([1]; 303.15 K, x1 = 0.5999) was 1139.33 ± 0.31 kg/m3, the mass density ([1]; 303.15 K, x1 = 0.699) was 1161.67 ± 0.33 kg/m3 and the mass density ([1]; 303.15 K, x1 = 0.7963) was 1179.99 ± 0.36 kg/m3. For the same molecule, the mass density ([1]; 303.15 K, x1 = 0.8477) was 1188.5 ± 0.37 kg/m3, the mass density ([1]; 303.15 K, x1 = 0.8984) was 1196.25 ± 0.39 kg/m3 and the mass density ([1]; 303.15 K, x1 = 0.9461) was 1203.06 ± 0.4 kg/m3. For the same molecule, the kinematic viscosity ([1]; 303.15 K, x1 = 0.0482) was 1.42e-06 ± 2.1e-08 m2/s, the kinematic viscosity ([1]; 303.15 K, x1 = 0.0945) was 1.96e-06 ± 2.9e-08 m2/s and the kinematic viscosity ([1]; 303.15 K, x1 = 0.1932) was 3.17e-06 ± 4.6e-08 m2/s. For the same molecule, the kinematic viscosity ([1]; 303.15 K, x1 = 0.2702) was 4.37e-06 ± 6.3e-08 m2/s, the kinematic viscosity ([1]; 303.15 K, x1 = 0.3959) was 7.13e-06 ± 9.9e-08 m2/s and the kinematic viscosity ([1]; 303.15 K, x1 = 0.4954) was 1.03e-05 ± 1.4e-07 m2/s. It also gave a kinematic viscosity ([1]; 303.15 K, x1 = 0.5999) of 1.57e-05 ± 2.1e-07 m2/s, a kinematic viscosity ([1]; 303.15 K, x1 = 0.699) of 2.36e-05 ± 3.2e-07 m2/s and a kinematic viscosity ([1]; 303.15 K, x1 = 0.7963) of 3.58e-05 ± 4.8e-07 m2/s. It also gave a kinematic viscosity ([1]; 303.15 K, x1 = 0.8477) of 4.48e-05 ± 6e-07 m2/s, a kinematic viscosity ([1]; 303.15 K, x1 = 0.8984) of 5.83e-05 ± 7.1e-07 m2/s and a kinematic viscosity ([1]; 303.15 K, x1 = 0.9461) of 7.37e-05 ± 1.2e-06 m2/s. The mass density ([1]; 313.15 K, x1 = 0.0482) was 834.98 ± 0.32 kg/m3, the mass density ([1]; 313.15 K, x1 = 0.0945) was 884.28 ± 0.29 kg/m3 and the mass density ([1]; 313.15 K, x1 = 0.1932) was 964.73 ± 0.27 kg/m3. The mass density ([1]; 313.15 K, x1 = 0.2702) was 1011.49 ± 0.25 kg/m3, the mass density ([1]; 313.15 K, x1 = 0.3959) was 1068.89 ± 0.27 kg/m3 and the mass density ([1]; 313.15 K, x1 = 0.4954) was 1103.28 ± 0.28 kg/m3. The mass density ([1]; 313.15 K, x1 = 0.5999) was 1132.29 ± 0.31 kg/m3, the mass density ([1]; 313.15 K, x1 = 0.699) was 1154.79 ± 0.33 kg/m3 and the mass density ([1]; 313.15 K, x1 = 0.7963) was 1173.24 ± 0.36 kg/m3. It also gave a mass density ([1]; 313.15 K, x1 = 0.8477) of 1181.82 ± 0.37 kg/m3, a mass density ([1]; 313.15 K, x1 = 0.8984) of 1189.62 ± 0.38 kg/m3 and a mass density ([1]; 313.15 K, x1 = 0.9461) of 1196.46 ± 0.4 kg/m3. The kinematic viscosity ([1]; 313.15 K, x1 = 0.0482) was 1.29e-06 ± 1.9e-08 m2/s, the kinematic viscosity ([1]; 313.15 K, x1 = 0.0945) was 1.68e-06 ± 2.5e-08 m2/s and the kinematic viscosity ([1]; 313.15 K, x1 = 0.1932) was 2.57e-06 ± 3.8e-08 m2/s. The kinematic viscosity ([1]; 313.15 K, x1 = 0.2702) was 3.45e-06 ± 5e-08 m2/s, the kinematic viscosity ([1]; 313.15 K, x1 = 0.3959) was 5.43e-06 ± 7.8e-08 m2/s and the kinematic viscosity ([1]; 313.15 K, x1 = 0.4954) was 7.61e-06 ± 1.1e-07 m2/s. It also gave a kinematic viscosity ([1]; 313.15 K, x1 = 0.5999) of 1.14e-05 ± 1.6e-07 m2/s, a kinematic viscosity ([1]; 313.15 K, x1 = 0.699) of 1.65e-05 ± 2.2e-07 m2/s and a kinematic viscosity ([1]; 313.15 K, x1 = 0.7963) of 2.41e-05 ± 3.2e-07 m2/s. It also gave a kinematic viscosity ([1]; 313.15 K, x1 = 0.8477) of 2.95e-05 ± 3.9e-07 m2/s, a kinematic viscosity ([1]; 313.15 K, x1 = 0.8984) of 3.73e-05 ± 5e-07 m2/s and a kinematic viscosity ([1]; 313.15 K, x1 = 0.9461) of 4.58e-05 ± 6.2e-07 m2/s. For the same molecule, the mass density ([1]; 323.15 K, x1 = 0.0482) was 826.69 ± 0.32 kg/m3, the mass density ([1]; 323.15 K, x1 = 0.0945) was 876.45 ± 0.3 kg/m3 and the mass density ([1]; 323.15 K, x1 = 0.1932) was 957.44 ± 0.28 kg/m3. It also gave a mass density ([1]; 323.15 K, x1 = 0.2702) of 1004.32 ± 0.25 kg/m3, a mass density ([1]; 323.15 K, x1 = 0.3959) of 1061.7 ± 0.27 kg/m3 and a mass density ([1]; 323.15 K, x1 = 0.4954) of 1096.06 ± 0.28 kg/m3. For the same molecule, the mass density ([1]; 323.15 K, x1 = 0.5999) was 1125.08 ± 0.3 kg/m3, the mass density ([1]; 323.15 K, x1 = 0.699) was 1147.65 ± 0.33 kg/m3 and the mass density ([1]; 323.15 K, x1 = 0.7963) was 1166.21 ± 0.35 kg/m3. It also gave a mass density ([1]; 323.15 K, x1 = 0.8477) of 1174.82 ± 0.37 kg/m3, a mass density ([1]; 323.15 K, x1 = 0.8984) of 1182.65 ± 0.38 kg/m3 and a mass density ([1]; 323.15 K, x1 = 0.9461) of 1189.47 ± 0.39 kg/m3. For the same molecule, the kinematic viscosity ([1]; 323.15 K, x1 = 0.0482) was 1.15e-06 ± 1.8e-08 m2/s, the kinematic viscosity ([1]; 323.15 K, x1 = 0.0945) was 1.41e-06 ± 2.1e-08 m2/s and the kinematic viscosity ([1]; 323.15 K, x1 = 0.1932) was 2.06e-06 ± 3.1e-08 m2/s. The kinematic viscosity ([1]; 323.15 K, x1 = 0.2702) was 2.73e-06 ± 4e-08 m2/s, the kinematic viscosity ([1]; 323.15 K, x1 = 0.3959) was 4.24e-06 ± 6.2e-08 m2/s and the kinematic viscosity ([1]; 323.15 K, x1 = 0.4954) was 5.94e-06 ± 8.5e-08 m2/s. It also gave a kinematic viscosity ([1]; 323.15 K, x1 = 0.5999) of 8.55e-06 ± 1.2e-07 m2/s, a kinematic viscosity ([1]; 323.15 K, x1 = 0.699) of 1.2e-05 ± 1.7e-07 m2/s and a kinematic viscosity ([1]; 323.15 K, x1 = 0.7963) of 1.7e-05 ± 2.3e-07 m2/s. It also gave a kinematic viscosity ([1]; 323.15 K, x1 = 0.8477) of 2.05e-05 ± 2.8e-07 m2/s, a kinematic viscosity ([1]; 323.15 K, x1 = 0.8984) of 2.53e-05 ± 3.4e-07 m2/s and a kinematic viscosity ([1]; 323.15 K, x1 = 0.9461) of 3.05e-05 ± 4.1e-07 m2/s.

With CO [methanol] the viscosity ([2]; 293.15 K) was 0.5833 ± 0.0069 mPa·s, the mass density ([2]; 293.15 K) was 791.24 ± 0.23 kg/m3 and the viscosity ([2]; 303.15 K) was 0.507 ± 0.006 mPa·s. For the same molecule, the mass density ([2]; 303.15 K) was 781.81 ± 0.23 kg/m3, the viscosity ([2]; 313.15 K) was 0.4438 ± 0.0053 mPa·s and the mass density ([2]; 313.15 K) was 772.29 ± 0.24 kg/m3. The viscosity ([2]; 323.15 K) was 0.3873 ± 0.0047 mPa·s and the mass density ([2]; 323.15 K) was 762.63 ± 0.24 kg/m3.

CCCC[n+]1ccccc1.F[B-](F)(F)F [1-butylpyridinium tetrafluoroborate] gave a viscosity ([2]; 293.15 K) of 220.54 ± 5.7 mPa·s, a mass density ([2]; 293.15 K) of 1217.11 ± 0.42 kg/m3 and a viscosity ([2]; 303.15 K) of 119.52 ± 2.1 mPa·s. The mass density ([2]; 303.15 K) was 1210.83 ± 0.42 kg/m3, the viscosity ([2]; 313.15 K) was 71.11 ± 0.89 mPa·s and the mass density ([2]; 313.15 K) was 1203.72 ± 0.42 kg/m3. For the same molecule, the viscosity ([2]; 323.15 K) was 45.59 ± 0.54 mPa·s and the mass density ([2]; 323.15 K) was 1196.68 ± 0.41 kg/m3.

In the case of CCCC[n+]1cccc(C)c1.F[B-](F)(F)F [1-butyl-3-methylpyridinium tetrafluoroborate], the viscosity ([2]; 293.15 K) is reported as 246.62 ± 6.8 mPa·s, the mass density ([2]; 293.15 K) is reported as 1185.66 ± 0.4 kg/m3 and the viscosity ([2]; 303.15 K) is reported as 129.91 ± 2.4 mPa·s. It also gave a mass density ([2]; 303.15 K) of 1178.86 ± 0.4 kg/m3, a viscosity ([2]; 313.15 K) of 76.46 ± 1 mPa·s and a mass density ([2]; 313.15 K) of 1172.11 ± 0.39 kg/m3. The viscosity ([2]; 323.15 K) was 48.18 ± 0.57 mPa·s and the mass density ([2]; 323.15 K) was 1165.37 ± 0.39 kg/m3.

In the case of CCCC[n+]1ccc(C)cc1.F[B-](F)(F)F [1-butyl-4-methylpyridinium tetrafluoroborate], the viscosity ([2]; 293.15 K) is reported as 284.62 ± 8.5 mPa·s, the mass density ([2]; 293.15 K) is reported as 1185.92 ± 0.4 kg/m3 and the viscosity ([2]; 303.15 K) is reported as 144.68 ± 2.9 mPa·s. It also gave a mass density ([2]; 303.15 K) of 1179.12 ± 0.4 kg/m3, a viscosity ([2]; 313.15 K) of 85.53 ± 1.2 mPa·s and a mass density ([2]; 313.15 K) of 1172.12 ± 0.39 kg/m3. It also gave a viscosity ([2]; 323.15 K) of 55.53 ± 0.63 mPa·s and a mass density ([2]; 323.15 K) of 1165.52 ± 0.39 kg/m3.

Work on CCO [ethanol] yielded a viscosity ([2]; 293.15 K) of 1.18 ± 0.014 mPa·s, a mass density ([2]; 293.15 K) of 789.48 ± 0.24 kg/m3 and a viscosity ([2]; 303.15 K) of 0.981 ± 0.011 mPa·s. For the same molecule, the mass density ([2]; 303.15 K) was 781.3 ± 0.24 kg/m3, the viscosity ([2]; 313.15 K) was 0.822 ± 0.0097 mPa·s and the mass density ([2]; 313.15 K) was 772.57 ± 0.24 kg/m3. It also gave a viscosity ([2]; 323.15 K) of 0.6939 ± 0.0083 mPa·s and a mass density ([2]; 323.15 K) of 763.65 ± 0.25 kg/m3.
